Data as given in BindingDB's records for doi:10.1016/j.bioorg.2017.05.004 (The Affiliated Hospital of Qingdao University, 2017).

Molecular target: T1, Troponin C, slow skeletal and cardiac muscles [4-85] (Human, UniProt P63316)
T1 construct: 4-85
Experiment: Fluorescence Polarization Assay
Settings: pH 7; 14 °C
Protocol: The fluorescence polarization assays were performed at 298 K following a protocol modified from previously reported protocol [Zhuo et al., Mol. Biosyst., 12:2532-2540]. Synthetic peptides were labeled with fluorescein. Titrations were conducted by monitoring polarization as a function of increasing amounts of the proteins of TnC N-terminal domain added to 20 nM fluorescein-peptides in a buffer 50 mM HEPES, pH 7.0, 0.1% Tween 20, 200 mM NaCl and 15 mM DTT.

T1 sequence (P63316 4-85): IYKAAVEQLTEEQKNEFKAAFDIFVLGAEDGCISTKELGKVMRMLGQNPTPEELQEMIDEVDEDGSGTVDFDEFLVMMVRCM

Row | SMILES | Kd [µM]
1 | CSCC[C@H](NC(=O)[C@H](C)NC(=O)[C@H](CC(=O)O)NC(=O)[C@H](C)N)C(=O)N[C@@H](CCSC)C(=O)N[C@@H](CCC(N)=O)C(=O)N[C@@H](C)C(=O)N[C@@H](CC(C)C)C(=O)N[C@@H](CC(C)C)C(=O)NCC(=O)N[C@@H](C)C(=O)N[C@@H](CCCNC(=N)N)C(=O)O [ADAMMQALLGAR] | 15.7
2 | CC[C@H](C)[C@H](N)C(=O)N[C@@H](CO)C(=O)N[C@@H](C)C(=O)N[C@@H](CC(=O)O)C(=O)N[C@@H](C)C(=O)N[C@@H](CCSC)C(=O)N[C@@H](CCSC)C(=O)N[C@@H](CCC(N)=O)C(=O)N[C@@H](C)C(=O)N[C@@H](CC(C)C)C(=O)N[C@@H](CC(C)C)C(=O)NCC(=O)N[C@@H](C)C(=O)N[C@@H](CCCNC(=N)N)C(=O)N[C@@H](C)C(=O)N[C@@H](CCCCN)C(=O)N[C@@H](CCC(=O)O)C(=O)N[C@@H](CO)C(=O)O [ISADAMMQALLGARAKES] | 4.2
